Patent EP3431468B1, “USE OF ADIPONECTIN RECEPTOR AGONISTS IN TREATING DEPRESSION, ANXIETY AND NEUROINFLAMMATION” (CENTRE NATIONAL DE LA RECHERCHE SCIENTIFIQUE, priority 2017, dated 2019)

Legend:
serotonin pathway = test: 5-HT and 5-HIAA levels in dorsal raphe nucleus; type: in vivo; conditions: corticosterone-exposed mice, chronic AdipoRon
[1] = tested on: corticosterone-treated mice; test: Forced Swimming test (FST), chronic administration; type: in vivo; conditions: chronic 1mg/kg ip daily
Method: (§1) Three well-established mouse models of depression-like behavior have been used in the present study namely i- the long-term corticosterone treatment in the drinking water (David, Samuels et al. 2009), ii- the peripheral administration of LPS (O'Connor, Lawson et al. 2009) iii- the ApN^-/- mice (Liu, Guo et al. 2012). For chronic AdipoRon treatment, the experimental protocol was as followed: • i- Five weeks old male mice (five/cage) received corticosterone (35mg/L dissolved in tap water containing 4 g/L CD) or vehicle alone ad libitum for during 7 consecutive weeks (David, Samuels et al. 2009). Corticosterone and vehicle solutions were changed every 3 days to prevent possible degradation. […]
(§2) All behavioral testing were conducted during the light phase (between 09:00 and 14:00 am) in compliance with the Institutional Animal Care and Use Committee of the University of Nice-Sophia Antipolis (permission number 010344.01 from the French "Ministère de l'Enseignement Supérieur et de la Recherche" granted to Dr. Joëlle Chabry). • Forced Swimming test (FST) - Mice were placed an inescapable transparent tank (20cm diameter, 30cm deep) filled with water (23°C ± 0.5) for six minutes as previously described by Porsolt et al. (1977). […] To initiate testing, mice were placed into the light side and activity was recorded for 5 minutes. […]

[2] = tested on: presumed serotoninergic neurons; test: Whole-cell patch-clamp recordings on brain slices, voltage clamp; type: cell-based, mouse
[3] = tested on: wt and depression-like mouse models; test: Forced Swimming test (FST), acute administration; type: in vivo; conditions: LPS-treated mice (0.83 mg/kg LPS), 1mg/kg ip
Method: as §1, §2

hippocampal neurogenesis = test: Hippocampal neurogenesis (BrdU-positive cells in dentate gyrus); type: in vivo, mice; conditions: chronic AdipoRon
[4] = tested on: wt and depression-like mouse models; test: Forced Swimming test (FST), acute administration; type: in vivo, mice
[5] = tested on: corticosterone-treated mice; test: Sucrose preference test, chronic administration; type: in vivo; conditions: chronic 1mg/kg ip daily
Method: as §1, §2

[6] = tested on: corticosterone-treated mice; test: Light & Dark test (L&D), chronic administration; type: in vivo; conditions: chronic 1mg/kg ip daily
Method: as §1, §2

AMPK = AMPK phosphorylation in hypothalamus by western blot; type: in vivo, mice; conditions: 1mg/kg
[7] = tested on: corticosterone-treated mice; test: Learned Helplessness (LH), chronic administration; type: in vivo; conditions: chronic 1mg/kg ip daily
Method: as §1, §2

[8] = vehicle-treated mice (no corticosterone)

SMILES: O=C(COc1ccc(C(=O)c2ccccc2)cc1)NC1CCN(Cc2ccccc2)CC1 [AdipoRon, 2-(4-Benzoylphenoxy)-N-[1-(phenylmethyl)-4-piperidinyl]-acetamide]
- 5-HT level (serotonin pathway): without modifying the 5-HT level
- level of 5-HIAA (serotonin pathway): increased the level of 5-HIAA
- ratio 5-HIAA/5-HT (serotonin pathway): threefold increase
- immobility duration in the FST (resignation) ([1]; corticosterone-treated mice): reversed the effect of corticosterone
- immobility duration in the FST (resignation) [1, 8]: no significant effect
- effect of AdipoRon on current and membrane conductance ([2]; CsCl internal solution instead of KCl solution): blocked
- membrane conductance ([2]; holding potential of -60 mV, KCl internal solution, 10 µM AdipoRon): decrease in membrane conductance
- induced current ([2]; holding potential of -60 mV, KCl internal solution, n=9/9 presumed serotoninergic neurons, N=5 mice, 10 µM AdipoRon): small inward current
- immobility time in the FST [3]: significantly to reducing this parameter
- hippocampal neurogenesis rate (BrdU-positive nuclei in dentate gyrus) (hippocampal neurogenesis; control conditions (no corticosterone)): without modifying neurogenesis
- hippocampal neurogenesis rate (BrdU-positive nuclei in dentate gyrus) (hippocampal neurogenesis; long-term corticosterone-treated mice, 21-days post-BrdU injections): reversed the deleterious effect of corticosterone
- immobility time in the FST ([4]; ApN-/- mice, 0.5mg/kg ip, one-hour post injection): remained inefficient
- immobility time in the FST ([4]; ApN-/- mice, 1mg/kg per os (gavage), one-hour before FST): reduced the immobility time
- immobility time in the FST ([4]; ApN-/- mice, 5mg/kg ip, one-hour post injection): decreased the immobility time
- immobility time in the FST ([4]; C57BL/6J wt mice, 1mg/kg ip, 1h post-injection, vs vehicle): decreased the immobility time
- immobility time in the FST ([4]; C57BL/6J wt mice, 1mg/kg ip, 3h post-injection, vs vehicle): no significant effect
- immobility time in the FST ([4]; corticosterone-treated mice, 0.5mg/kg ip, one-hour post injection): significantly reduced the immobility time
- immobility time in the FST ([4]; corticosterone-treated mice, 5mg/kg ip, one-hour post injection): decreased the immobility time
- immobility time in the FST ([4]; wt mice, 0.5mg/kg ip, one-hour post injection): significantly reduced the immobility time
- immobility time in the FST ([4]; wt mice, 1mg/kg per os (gavage), one-hour before FST): reduced the immobility time
- immobility time in the FST ([4]; wt mice, 5mg/kg ip, one-hour post injection): decreased the immobility time
- sucrose preference (anhedonia) ([5]; corticosterone-treated mice): reversed the effect of corticosterone
- sucrose preference (anhedonia) [5, 8]: no significant effect
- time spent in the aversive light chamber (anxiety behavior) ([6]; corticosterone-treated mice): reversed the anxiety phenotype
- time spent in the aversive light chamber (anxiety behavior) [6, 8]: without effect
- level of phospho-AMPK (AMPK; 1-hour post ip injection): increased the level of phospho-AMPK
- level of phospho-AMPK (AMPK; 30 min post ip injection): increased the level of phospho-AMPK
- level of phospho-AMPK (AMPK; 3 hours post ip injection): no longer observable
- resignation-like behavior in the LH test (latency, failures to escape) ([7]; corticosterone-treated mice): reversed the effect of corticosterone
- resignation-like behavior in the LH test (latency, failures to escape) [7, 8]: no significant effect
